We go through 13 molecules from patent US8338608B2, “Inhibitors of ion channels” (Icagen Inc., priority 2005, dated 2012).

In one test the target is T1, hSCN3A (Homo sapiens, UniProt Q9NY46).
T1 construct: expressed in transfected cells
The test is described as follows: SCN3A inhibitory activity in HEK cells stably expressing hSCN3A (whole-cell patch clamp / radiotracer efflux HTS). Type of test: cell-based. Conditions: HEK cells stably transfected with hSCN3A; read-out: SCN3A Inhibitory Activity. On the technique in general: The patch-clamp technique gives a direct electrical read-out from membranes.

A further test deals with Nav1.3 (Homo sapiens, UniProt Q9NY46). Particulars: read-out: TTX IC-50; cited from earlier work.
The target in a further test is Nav1.6 (Homo sapiens, UniProt Q9UQD0). Particulars: read-out: TTX IC-50; cited from earlier work.
The next test has as its target Nav1.8 (Homo sapiens, UniProt Q9Y5Y9). Particulars: read-out: TTX IC-50; cited from earlier work.
In another test the target is Nav1.9 (Homo sapiens, UniProt Q9UI33). Particulars: read-out: TTX IC-50; cited from earlier work.
The target in the next test is Nav1.1 (Homo sapiens, UniProt P35498). Particulars: read-out: TTX IC-50; cited from earlier work.
The target in a further test is Nav1.2 (Homo sapiens, UniProt Q99250). Conditions: read-out: TTX IC-50; cited from earlier work.
For test [1] the following is noted: 'as little as only'; cited from earlier work.

T1 sequence (Q9NY46 whole entry): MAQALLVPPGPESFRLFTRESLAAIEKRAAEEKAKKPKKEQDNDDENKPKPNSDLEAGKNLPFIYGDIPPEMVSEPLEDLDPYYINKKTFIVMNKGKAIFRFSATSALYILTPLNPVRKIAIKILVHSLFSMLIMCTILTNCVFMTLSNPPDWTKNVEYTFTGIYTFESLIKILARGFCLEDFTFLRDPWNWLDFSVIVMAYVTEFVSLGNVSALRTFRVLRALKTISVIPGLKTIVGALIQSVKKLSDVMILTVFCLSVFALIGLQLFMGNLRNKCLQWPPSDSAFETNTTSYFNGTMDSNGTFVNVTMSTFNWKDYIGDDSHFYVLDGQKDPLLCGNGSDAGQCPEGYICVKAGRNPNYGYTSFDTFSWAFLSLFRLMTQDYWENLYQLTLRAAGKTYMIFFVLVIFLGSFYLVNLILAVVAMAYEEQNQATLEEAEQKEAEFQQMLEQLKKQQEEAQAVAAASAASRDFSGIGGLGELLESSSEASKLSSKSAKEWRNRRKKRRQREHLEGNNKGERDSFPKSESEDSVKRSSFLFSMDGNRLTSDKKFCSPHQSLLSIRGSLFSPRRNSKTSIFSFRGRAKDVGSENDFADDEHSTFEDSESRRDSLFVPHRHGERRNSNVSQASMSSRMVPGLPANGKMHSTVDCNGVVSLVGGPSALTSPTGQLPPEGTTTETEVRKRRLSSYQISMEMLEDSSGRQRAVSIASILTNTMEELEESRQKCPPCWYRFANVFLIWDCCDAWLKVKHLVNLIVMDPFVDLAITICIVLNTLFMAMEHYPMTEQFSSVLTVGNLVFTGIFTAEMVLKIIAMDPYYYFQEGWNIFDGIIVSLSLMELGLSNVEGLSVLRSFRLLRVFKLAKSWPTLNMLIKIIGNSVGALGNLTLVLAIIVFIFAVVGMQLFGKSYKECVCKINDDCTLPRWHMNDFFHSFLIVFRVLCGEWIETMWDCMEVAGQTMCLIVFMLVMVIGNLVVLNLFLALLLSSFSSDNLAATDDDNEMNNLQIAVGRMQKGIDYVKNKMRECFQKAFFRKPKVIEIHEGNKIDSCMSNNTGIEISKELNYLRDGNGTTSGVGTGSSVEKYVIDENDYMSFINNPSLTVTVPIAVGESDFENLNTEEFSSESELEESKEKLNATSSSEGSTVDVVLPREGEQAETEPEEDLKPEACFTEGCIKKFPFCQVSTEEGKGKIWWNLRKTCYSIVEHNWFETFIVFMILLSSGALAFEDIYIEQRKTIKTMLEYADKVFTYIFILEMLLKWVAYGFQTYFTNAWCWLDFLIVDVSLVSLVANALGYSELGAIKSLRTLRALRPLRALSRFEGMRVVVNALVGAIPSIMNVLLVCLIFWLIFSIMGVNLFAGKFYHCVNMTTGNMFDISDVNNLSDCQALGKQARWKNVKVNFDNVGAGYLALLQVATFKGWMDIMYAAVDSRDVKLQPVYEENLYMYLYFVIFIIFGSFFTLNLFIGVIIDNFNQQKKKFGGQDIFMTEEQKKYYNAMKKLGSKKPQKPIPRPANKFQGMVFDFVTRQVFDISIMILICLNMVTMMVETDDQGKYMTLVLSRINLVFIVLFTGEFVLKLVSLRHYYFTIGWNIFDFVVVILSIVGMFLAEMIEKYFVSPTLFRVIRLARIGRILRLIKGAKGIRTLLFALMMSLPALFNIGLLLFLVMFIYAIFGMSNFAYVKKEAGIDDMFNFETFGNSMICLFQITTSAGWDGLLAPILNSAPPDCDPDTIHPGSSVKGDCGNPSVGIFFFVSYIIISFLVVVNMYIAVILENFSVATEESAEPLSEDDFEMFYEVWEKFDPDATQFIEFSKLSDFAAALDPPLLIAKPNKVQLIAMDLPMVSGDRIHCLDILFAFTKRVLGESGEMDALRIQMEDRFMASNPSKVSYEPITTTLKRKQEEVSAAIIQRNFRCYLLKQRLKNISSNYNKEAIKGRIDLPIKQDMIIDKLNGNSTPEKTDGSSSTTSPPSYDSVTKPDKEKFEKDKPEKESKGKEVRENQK
Nav1.6, sequence (Q9UQD0 whole entry, looked up): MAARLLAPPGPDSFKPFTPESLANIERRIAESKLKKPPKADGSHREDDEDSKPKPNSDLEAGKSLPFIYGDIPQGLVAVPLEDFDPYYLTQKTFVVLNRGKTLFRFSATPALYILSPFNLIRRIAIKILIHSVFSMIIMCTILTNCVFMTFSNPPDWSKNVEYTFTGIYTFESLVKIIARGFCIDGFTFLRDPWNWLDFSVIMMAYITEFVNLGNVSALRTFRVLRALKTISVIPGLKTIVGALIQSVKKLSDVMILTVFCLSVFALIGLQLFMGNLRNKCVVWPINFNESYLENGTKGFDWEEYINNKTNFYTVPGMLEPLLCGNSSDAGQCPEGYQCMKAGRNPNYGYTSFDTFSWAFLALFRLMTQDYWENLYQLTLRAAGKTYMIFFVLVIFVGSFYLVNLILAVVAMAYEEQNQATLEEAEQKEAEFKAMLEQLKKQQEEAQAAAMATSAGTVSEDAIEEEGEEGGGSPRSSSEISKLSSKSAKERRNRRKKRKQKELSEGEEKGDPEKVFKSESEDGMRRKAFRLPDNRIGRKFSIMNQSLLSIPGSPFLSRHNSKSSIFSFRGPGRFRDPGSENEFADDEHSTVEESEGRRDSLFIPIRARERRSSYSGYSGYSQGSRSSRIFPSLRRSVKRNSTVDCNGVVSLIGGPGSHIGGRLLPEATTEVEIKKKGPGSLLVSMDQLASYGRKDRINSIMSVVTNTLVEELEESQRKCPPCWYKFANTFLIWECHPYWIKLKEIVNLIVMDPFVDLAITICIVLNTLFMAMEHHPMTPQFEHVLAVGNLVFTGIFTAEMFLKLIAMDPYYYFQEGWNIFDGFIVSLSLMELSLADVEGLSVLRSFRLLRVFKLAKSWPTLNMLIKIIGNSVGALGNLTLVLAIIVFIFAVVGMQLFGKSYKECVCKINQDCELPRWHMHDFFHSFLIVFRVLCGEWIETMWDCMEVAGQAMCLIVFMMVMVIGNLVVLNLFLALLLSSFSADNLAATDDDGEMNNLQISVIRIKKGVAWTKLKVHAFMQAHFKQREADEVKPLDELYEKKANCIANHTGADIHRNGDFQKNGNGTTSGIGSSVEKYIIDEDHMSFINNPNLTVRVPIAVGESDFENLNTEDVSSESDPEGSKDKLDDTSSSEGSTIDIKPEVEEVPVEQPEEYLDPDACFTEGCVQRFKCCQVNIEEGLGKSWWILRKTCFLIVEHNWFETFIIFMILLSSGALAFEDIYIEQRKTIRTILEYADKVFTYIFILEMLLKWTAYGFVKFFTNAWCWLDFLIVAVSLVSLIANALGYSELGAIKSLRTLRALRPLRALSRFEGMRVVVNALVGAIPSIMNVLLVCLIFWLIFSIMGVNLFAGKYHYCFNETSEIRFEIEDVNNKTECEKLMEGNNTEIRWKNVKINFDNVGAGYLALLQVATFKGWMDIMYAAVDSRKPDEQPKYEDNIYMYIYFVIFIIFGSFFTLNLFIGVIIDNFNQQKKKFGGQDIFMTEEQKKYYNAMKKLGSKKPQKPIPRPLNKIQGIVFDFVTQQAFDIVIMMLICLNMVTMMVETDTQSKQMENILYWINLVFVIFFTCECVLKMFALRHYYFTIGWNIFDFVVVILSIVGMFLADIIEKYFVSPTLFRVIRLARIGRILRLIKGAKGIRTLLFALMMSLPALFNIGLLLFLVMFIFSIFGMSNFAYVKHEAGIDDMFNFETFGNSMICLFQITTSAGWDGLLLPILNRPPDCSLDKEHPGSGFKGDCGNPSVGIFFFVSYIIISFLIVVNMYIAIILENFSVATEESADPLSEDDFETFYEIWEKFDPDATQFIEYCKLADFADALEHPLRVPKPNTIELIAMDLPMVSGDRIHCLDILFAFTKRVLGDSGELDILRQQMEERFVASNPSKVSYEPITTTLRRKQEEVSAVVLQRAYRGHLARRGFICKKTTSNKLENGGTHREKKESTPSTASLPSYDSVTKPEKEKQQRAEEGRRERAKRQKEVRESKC
Nav1.3, sequence (Q9NY46 whole entry, looked up): as the sequence (Q9NY46 whole entry) above

For `COc1ccc(CNS(=O)(=O)c2ccc(S(=O)(=O)Nc3nccs3)cc2)cc1Cl` [Compound 37, Benzene-1,4-disulfonic acid 1-(3-chloro-4-methoxy-benzylamide) 4-thiazol-2-ylamide], the IC50 on hSCN3A was in the range of 100 to 500 nM.

Regarding `CC(C)(C)c1ccc(OC2(CNS(=O)(=O)c3ccc(S(=O)(=O)Nc4nccs4)cc3)CCCC2)cc1` [Compound 38, Benzene-1,4-disulfonic acid 1-{[1-(4-tert-butyl-phenoxy)-cyclopentylmethyl]-amide} 4-thiazol-2-ylamide], on hSCN3A, the IC50 is 100 to 500 nM.

For the molecule `CC(C)(CNS(=O)(=O)c1ccc(S(=O)(=O)Nc2nccs2)cc1)c1ccc(Cl)cc1` [Compound 39, Benzene-1,4-disulfonic acid 1-{[2-(4-chloro-phenyl)-2-methyl-propyl]-amide} 4-thiazol-2-ylamide], the IC50 on hSCN3A is 100 to 500 nM.

`O=S(=O)(NCc1cc(F)cc(C(F)(F)F)c1)c1ccc(S(=O)(=O)Nc2nccs2)cc1` [Compound 40, Benzene-1,4-disulfonic acid 1-(3-fluoro-5-trifluoromethyl-benzylamide) 4-thiazol-2-ylamide]: the IC50 on hSCN3A is 100 to 500 nM.

Turning to `O=S(=O)(NCCc1ccc(Cl)s1)c1ccc(S(=O)(=O)Nc2nccs2)cc1` [Compound 41, Benzene-1,4-disulfonic acid 1-{[2-(5-chloro-thiophen-2-yl)-ethyl]-amide} 4-thiazol-2-ylamide], on hSCN3A, the IC50 lay within 100 to 500 nM.

For the molecule `CC(C)(C)CCNS(=O)(=O)c1ccc(S(=O)(=O)Nc2nccs2)c(F)c1` [Compound 42, 2-Fluoro-benzene-1,4-disulfonic acid 4-[(3,3-dimethyl-butyl)-amide] 1-thiazol-2-ylamide], the IC50 on hSCN3A was 100 to 500 nM.

With `O=S(=O)(NCCOc1ccccc1Cl)Nc1ccc(S(=O)(=O)Nc2nccs2)cc1` [Compound 43, N-[2-(2-chloro-phenoxyl)-ethyl]-N′-[4-(N-thiazol-2-yl-sulfonamyl)-phenyl]-sulfamide], the IC50 at hSCN3A was in the range of 500 to 1000 nM.

Take `O=S(=O)(NCCC1CCCCC1)c1ccc(S(=O)(=O)Nc2nccs2)cc1` [Compound 44, Benzene-1,4-disulfonic acid 1-[(2-cyclohexyl-ethyl)-amide] 4-thiazol-2-ylamide]: at hSCN3A, the IC50 was 500 to 1000 nM.

For the molecule `O=S(=O)(NCC(c1ccccc1)c1ccccc1)Nc1ccc(S(=O)(=O)Nc2nccs2)cn1` [Compound 45], the IC50 at hSCN3A is > 1000 nM.

Consider `O=S(=O)(NCCC1CCOCC1)Nc1ccc(S(=O)(=O)Nc2nccs2)cc1` [Compound 46, N-[2-(4-tetrahydro-pyranyl]-ethyl]-N′-[4-(N-thiazol-2-yl-sulfonamyl)-phenyl]-sulfamide], for which the IC50 on hSCN3A was > 1000 nM.

As for `CN(CCc1ccccc1)S(=O)(=O)c1ccc(S(=O)(=O)Nc2nccs2)cc1` [Compound 47, Benzene-1,4-disulfonic acid 1-(methyl-phenethyl-amide) 4-thiazol-2-ylamide], on hSCN3A, the IC50 was > 1000 nM.

Take `NC1=N[C@H](O)[C@H]2[C@H]3O[C@]4(O)O[C@@H]([C@@H](O)[C@@]2(N1)[C@@H]4O)[C@]3(O)CO` [TTX, tetrodotoxin]: the IC50 on Nav1.3 is 15 nM; on Nav1.6, 6 nM; on Nav1.8, 50 µM; at Nav1.9, 1000 nM; at Nav1.1, 10 nM; at Nav1.2, 10 nM.

Regarding `NCC1(CC(=O)O)CCCCC1` [gabapentin], the “patients respond to gabapentin treatment for neuropathic pain” value in test [1] is 30%.
